Data: BindingDB's records for doi:10.1021/jm00143a003 (1982)

Biological target: Spermine synthase (Rattus norvegicus)
Experiment: Inhibitory activity against spermine synthase

IC50: 80 µM
SMILES: C[S+](C[C@H]1O[C@H](n2cnc3c(N)ncnc32)[C@H](O)[C@@H]1O)C(CCN)CCCCCN (stereo partly specified)
